Values quoted from earlier work in patent US20210199674A1, “TREATMENT METHOD, ANALYZING DEVICE, AND SURFACE TREATING LIQUID” (ARKRAY, Inc., priority 2019, published 2021).

Conditions: for acid dissociation constant pKa1: first acidic proton dissociates; for acid dissociation constant pKa4: fourth acidic proton dissociates; for acid dissociation constant pKa2: second acidic proton dissociates; for acid dissociation constant pKa3: third acidic proton dissociates

| Structure (SMILES) | acid dissociation constant pKa1 | acid dissociation constant pKa4 | acid dissociation constant pKa2 | acid dissociation constant pKa3 |
| --- | --- | --- | --- | --- |
| O=P(O)(O)CP(=O)(O)O [methylene diphosphonate] | 1.43 | 10.96 | 3.05 | 7.35 |
| O=P(O)(O)OP(=O)(O)O [pyrophosphoric acid] | 0.9 | 9.4 | 2.0 | 6.6 |
